According to PubChem BioAssay (NCI):
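Where inhibition never reached the appropriate level, the endpoint shown equals the highest concentration tested. Otherwise, values were interpolated linearly from a five-concentration, 48-hour dose response in 96-well plates. Here, GI50 denotes the concentration required for 50% inhibition of growth. TGI: total growth inhibition.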

Experiments:
Assay in all cases: inhibition of tumour cell growth, NCI panel, 48 h
RPMI-8226 leukemia = test system: RPMI-8226 leukemia
SF-295 CNS = test system: SF-295 CNS
MCF7 breast = test system: MCF7 breast
HOP-62 NSCLC = test system: HOP-62 NSCLC
HCT-116 colon = test system: HCT-116 colon
CAKI-1 renal = test system: CAKI-1 renal
LOX IMVI melanoma = test system: LOX IMVI melanoma
K-562 leukemia = test system: K-562 leukemia
NCI/ADR-RES ovarian = test system: NCI/ADR-RES ovarian
SK-OV-3 ovarian = test system: SK-OV-3 ovarian
NCI-H23 lung = test system: NCI-H23 lung
COLO 205 colon = test system: COLO 205 colon
ACHN renal = test system: ACHN renal
PC-3 prostate = test system: PC-3 prostate
MALME-3M melanoma = test system: MALME-3M melanoma
IGROV1 ovarian = test system: IGROV1 ovarian
MDA-MB-435 = test system: MDA-MB-435
HL-60(TB) leukemia = test system: HL-60(TB) leukemia
SNB-19 CNS = test system: SNB-19 CNS
SW-620 colon = test system: SW-620 colon
OVCAR-5 ovarian = test system: OVCAR-5 ovarian
RXF 393 renal = test system: RXF 393 renal
EKVX NSCLC = test system: EKVX NSCLC
SR leukemia = test system: SR leukemia
M14 melanoma = test system: M14 melanoma
NCI-H522 lung = test system: NCI-H522 lung
MDA-MB-231 breast = test system: MDA-MB-231 breast
CCRF-CEM leukemia = test system: CCRF-CEM leukemia
OVCAR-8 ovarian = test system: OVCAR-8 ovarian
A498 renal = test system: A498 renal
TK-10 renal = test system: TK-10 renal
U251 CNS = test system: U251 CNS
MOLT-4 leukemia = test system: MOLT-4 leukemia
KM12 colon = test system: KM12 colon
UACC-62 melanoma = test system: UACC-62 melanoma
SN12C renal = test system: SN12C renal
SK-MEL-28 melanoma = test system: SK-MEL-28 melanoma
UO-31 renal = test system: UO-31 renal
786-0 renal = test system: 786-0 renal
SF-539 CNS = test system: SF-539 CNS
HCC-2998 colon = test system: HCC-2998 colon
A549 NSCLC = test system: A549 NSCLC
T-47D breast = test system: T-47D breast
SF-268 CNS = test system: SF-268 CNS
HS 578T breast = test system: HS 578T breast
UACC-257 melanoma = test system: UACC-257 melanoma
SK-MEL-5 melanoma = test system: SK-MEL-5 melanoma
HOP-92 NSCLC = test system: HOP-92 NSCLC
NCI-H460 lung = test system: NCI-H460 lung
HCT-15 colon = test system: HCT-15 colon
BT-549 breast = test system: BT-549 breast
SK-MEL-2 melanoma = test system: SK-MEL-2 melanoma
NCI-H226 lung = test system: NCI-H226 lung
SNB-75 CNS = test system: SNB-75 CNS
DU-145 prostate = test system: DU-145 prostate
OVCAR-4 ovarian = test system: OVCAR-4 ovarian
HT29 colon = test system: HT29 colon

Cc1cc2nc3c4cc(C#N)ccc4n(CCN(C)C)c3nc2cc1C
GI50 (RPMI-8226 leukemia): 1100 nM | TGI (RPMI-8226 leukemia): 4610 nM | GI50 (SF-295 CNS): 932 nM | TGI (SF-295 CNS): > 22500 nM | GI50 (MCF7 breast): 1200 nM | TGI (MCF7 breast): 6720 nM | GI50 (HOP-62 NSCLC): 755 nM | GI50 (HCT-116 colon): 429 nM | TGI (HCT-116 colon): 1760 nM | GI50 (CAKI-1 renal): 381 nM | TGI (CAKI-1 renal): 3420 nM | GI50 (LOX IMVI melanoma): 601 nM | TGI (LOX IMVI melanoma): 2800 nM | GI50 (K-562 leukemia): 682 nM | TGI (K-562 leukemia): > 34100 nM | GI50 (NCI/ADR-RES ovarian): 637 nM | TGI (NCI/ADR-RES ovarian): 7080 nM | GI50 (SK-OV-3 ovarian): 919 nM | TGI (SK-OV-3 ovarian): 9980 nM | GI50 (NCI-H23 lung): 507 nM | TGI (NCI-H23 lung): 2370 nM | GI50 (COLO 205 colon): 456 nM | TGI (COLO 205 colon): 1630 nM | GI50 (ACHN renal): 324 nM | TGI (ACHN renal): 1480 nM | GI50 (PC-3 prostate): 1490 nM | TGI (PC-3 prostate): > 21100 nM | GI50 (MALME-3M melanoma): 1380 nM | TGI (MALME-3M melanoma): 3600 nM | GI50 (IGROV1 ovarian): 1070 nM | TGI (IGROV1 ovarian): 5600 nM | GI50 (MDA-MB-435): 1010 nM | TGI (MDA-MB-435): 3390 nM | GI50 (HL-60(TB) leukemia): 1160 nM | TGI (HL-60(TB) leukemia): 4370 nM | GI50 (SNB-19 CNS): 978 nM | TGI (SNB-19 CNS): > 25200 nM | GI50 (SW-620 colon): 411 nM | TGI (SW-620 colon): 1970 nM | GI50 (OVCAR-5 ovarian): 1450 nM | TGI (OVCAR-5 ovarian): > 22600 nM | GI50 (RXF 393 renal): 918 nM | TGI (RXF 393 renal): 2830 nM | GI50 (EKVX NSCLC): 1710 nM | TGI (EKVX NSCLC): > 23800 nM | GI50 (SR leukemia): 362 nM | TGI (SR leukemia): 3590 nM | GI50 (M14 melanoma): 1360 nM | TGI (M14 melanoma): 3820 nM | GI50 (NCI-H522 lung): 505 nM | TGI (NCI-H522 lung): 1960 nM | GI50 (MDA-MB-231 breast): 1060 nM | TGI (MDA-MB-231 breast): > 20600 nM | GI50 (CCRF-CEM leukemia): 1220 nM | TGI (CCRF-CEM leukemia): > 33800 nM | GI50 (OVCAR-8 ovarian): 584 nM | TGI (OVCAR-8 ovarian): 3920 nM | GI50 (A498 renal): 1930 nM | GI50 (TK-10 renal): 1980 nM | TGI (TK-10 renal): > 23200 nM | GI50 (U251 CNS): 860 nM | GI50 (MOLT-4 leukemia): 429 nM | TGI (MOLT-4 leukemia): > 32600 nM | GI50 (KM12 colon): 1690 nM | TGI (KM12 colon): > 29700 nM | GI50 (UACC-62 melanoma): 1400 nM | TGI (UACC-62 melanoma): 5210 nM | GI50 (SN12C renal): 770 nM | TGI (SN12C renal): > 20800 nM | GI50 (SK-MEL-28 melanoma): 2270 nM | GI50 (UO-31 renal): 312 nM | TGI (UO-31 renal): 2240 nM | GI50 (786-0 renal): 1340 nM | TGI (786-0 renal): > 20000 nM | GI50 (SF-539 CNS): 966 nM | GI50 (HCC-2998 colon): 1030 nM | TGI (HCC-2998 colon): 2440 nM | GI50 (A549 NSCLC): 666 nM | TGI (A549 NSCLC): 3020 nM | GI50 (T-47D breast): 2300 nM | GI50 (SF-268 CNS): 1620 nM | TGI (SF-268 CNS): > 20700 nM | GI50 (HS 578T breast): 1590 nM | TGI (HS 578T breast): > 21500 nM | GI50 (UACC-257 melanoma): 686 nM | TGI (UACC-257 melanoma): 2060 nM | GI50 (SK-MEL-5 melanoma): 1690 nM | TGI (SK-MEL-5 melanoma): 3510 nM | GI50 (HOP-92 NSCLC): 634 nM | TGI (HOP-92 NSCLC): 4580 nM | GI50 (NCI-H460 lung): 416 nM | TGI (NCI-H460 lung): 2510 nM | GI50 (HCT-15 colon): 1010 nM | TGI (HCT-15 colon): 6170 nM | GI50 (BT-549 breast): 2400 nM | GI50 (SK-MEL-2 melanoma): 2180 nM | TGI (SK-MEL-2 melanoma): 6150 nM | GI50 (NCI-H226 lung): 1230 nM | TGI (NCI-H226 lung): 8430 nM | GI50 (SNB-75 CNS): 951 nM | TGI (SNB-75 CNS): 2670 nM | GI50 (DU-145 prostate): 1100 nM | TGI (DU-145 prostate): > 32700 nM | GI50 (OVCAR-4 ovarian): 1650 nM | TGI (OVCAR-4 ovarian): 5730 nM | GI50 (HT29 colon): 546 nM | TGI (HT29 colon): 6800 nM
